Data set [1] deals with Caco-2 (human epithelial colorectal adenocarcinoma). Description: cells.
Data set [2] concerns CCD-18Co (human colon fibroblasts).
Data set [3] shares this test system. The experiment in a line: cells.
In data set [4] the test system is HCT-116 (human colon carcinoma). Description: MTS cytotoxicity assay, HCT-116. Format: cell-based.
The test system of data set [5] is calf thymus DNA (EB-DNA complex). The settings on record: binding to DNA; cited from earlier work.

Here are results for two compounds from article PMC3086094 (Journal of molecular structure, 2011).

In the case of `COc1cc([C@@H]2c3cc4c(cc3[C@@H](O[C@@H]3O[C@@H]5CO[C@@H](C)O[C@H]5[C@H](O)[C@H]3O)[C@H]3COC(=O)[C@H]23)OCO4)cc(OC)c1O` [Etoposide], the IC50 in data set [1] (Caco-2, 24 h) turned out to be 23.1 ± 1.2 µM; in data set [1] (Caco-2, 48 h) it was 17.9 ± 1.3 µM; in data set [1] (Caco-2, 72 h), 16.5 ± 2 µM; in data set [3] (24 h) it was 50.1 ± 1.5 µM; in data set [3] (48 h), 45.2 ± 1.1 µM; in data set [3] (72 h), 42.2 ± 1 µM. The IC50 in data set [4] (HCT-116, 24 h) was determined as 27.2 ± 1.2 µM; in data set [4] (HCT-116, 48 h) it was 22.9 ± 1.5 µM; in data set [4] (HCT-116, 72 h), 18.3 ± 1.4 µM. In addition, the “cytotoxic selectivity, cancer cells versus normal cells CCD-18Co” value in data set [2] was ~ 2.5 times.
In the case of `CC[n+]1c(-c2ccccc2)c2cc(N)ccc2c2ccc(N)cc21` [ethidium bromide], in data set [5], the “KEB, binding constant for ethidium bromide” value is 1.2e+06 M⁻¹.
